# From patent US20050064470A1, “High throughput screening methods for identifying RNA binding compounds” (priority 2003, published 2005)
# What was measured:
# wild-type TAR RNA = test: Fluorescence polarization anisotropy (FPA) binding to fluorescein-labeled wild-type TAR RNA; design: species or system HIV-1; settings: for affinity for TAR RNA (in words) / Kd / specificity for wild-type TAR over bulgeless TAR (in words): FPA; for Kd: 20 mM KCl, fluorescein-tagged wild-type TAR RNA, room temperature, read-out: Kd wt TAR; for specificity for wild-type TAR over bulgeless TAR (in words): wild-type vs bulge-deleted TAR; for Binding Specificity (Kd (mutTAR)/Kd (wtTAR)): ratio of Kd for bulge-deleted TAR to Kd for wild-type TAR, in text as fold decrease of affinity
# Procedure: (§1) β-Peptide and mutant β-peptide binding affinities to TAR RNA were measured by fluorescence anisotropy method on a PTI (Photon Technology International) fluorescence spectrophotometer. A T-format setup based on two emission channels was used. The intensities of the parallel and perpendicular components simultaneously were obtained in one measurement using two separate detectors. The excitation side is a motorized Glan-Thompson polarizer and emission sides are two film polarizers placed in vertical and horizontal orientation, respectively. The anisotropy can be calculated from equation 1, [formula] • where III and I⊥ are fluorescence intensities observed when the emission polarizer is oriented parallel and perpendicular to the direction of the polarized excitation, respectively.
# (§2) The fluorescein-labeled TAR RNA (F-TAR, either wt TAR or bulge-less TAR, see FIG. 1) was excited at 490 nm and two polarized emissions were monitored at 512 nm. The slits were set at 8 nm for both excitation and emission light. The integration time was 20 seconds. All data were measured in a Sub-Micro cuvette (Starna Cell, Inc.) with a starting volume of 160 μL. Each addition of β-peptide/mutant β-peptide was followed by one-minute equilibration before the fluorescence signal was recorded. All experiments were done at room temperature and in a TKT buffer (TKT: 50 mM Tris-HCl, pH=7.4, 20 mM KCl and 0.02% Tween20). The initial concentration of F-TAR was around 25 nM. The stock concentration of β-peptide/mutant β-peptide for titration was 2 μM. The experiment was repeated three times independently. For every single point, five measurements were made and their average anisotropy value was used for calculation of the KD.
# (§3) The binding dissociation constant (KD) is determined by fitting the plot of anisotropy of F-TAR versus the concentration of the β-peptide using equation 3, [formula] • where A is the relative fluorescence anisotropy of dye-labeled TAR RNA. The capacity for binding, Cap, is the maximum binding ability of a small molecule. C is the total concentration of β-peptide added. a is a correction factor.
# [1] = molecular target: bulge-deleted (mut) TAR RNA; test: Fluorescence polarization anisotropy (FPA) binding to fluorescein-labeled bulge-deleted TAR RNA; design: species or system HIV-1; settings: for Kd: FPA, 20 mM KCl, fluorescein-tagged bulge-deleted TAR RNA, room temperature
# Procedure: as §1, §2, §3
Substance,affinity for TAR RNA (in words) (wild-type TAR RNA),Kd (wild-type TAR RNA) [nM],specificity for wild-type TAR over bulgeless TAR (in words) (wild-type TAR RNA),affinity for wild-type TAR lower than that of α-peptide 3 (wild-type TAR RNA; compared to α-peptide 3),Binding Specificity (Kd (mutTAR)/Kd (wtTAR)) (wild-type TAR RNA),Binding Specificity (Kd (mutTAR)/Kd (wtTAR)) (wild-type TAR RNA; listed as β-peptide 1),dissociation constant ratio (Krel) relative to α-peptide 3 (wild-type TAR RNA; value above 1.0 denotes stronger binding of the analogue relative to the native peptide),Kd [1] [nM],affinity for bulgeless TAR reduced compared to α-peptide 3 ([1]; compared to α-peptide 3)
"β-amino acid oligomer (β-peptide) analogue of Tat 47-57 (YGRKKRRQRRR, SEQ ID NO:1) [wt β-peptide 1]",nanomolar affinity,28 ± 4,enhanced specificity,roughly 15 fold,10,about 10,0.072,281 ± 68,more than two orders of magnitude
"N-Tyr-Gly-Arg-Lys-Lys-Arg-Arg-Gln-Arg-Arg-Arg [α-TatR 3, reference compound]",–,1.8 ± 0.5,little specificity,–,1,–,–,1.1 ± 0.2,–
β-peptide in which all arginine side chains have been replaced by lysine side chains (YGKKKKKQKKK; SEQ ID NO:2) [mut β-peptide 2],high affinity,16 ± 2,less specificity,–,2,–,–,33 ± 2,–
